Test results as given in paper PMC6320863, “Interaction of Chrysin and Its Main Conjugated Metabolites Chrysin-7-Sulfate and Chrysin-7-Glucuronide with Serum Albumin” (International Journal of Molecular Sciences, 2018).

What was measured:
[1] = tested on: T1, warfarin–HSA complex (Sudlow's Site I); test: Ultrafiltration: displacement of Site I marker warfarin from HSA; assay type: binding, human; details: 1 µmol/L warfarin, 5 µmol/L HSA, PBS pH 7.4
T1 construct: purchased Sigma-Aldrich
Experimental: (§1) Effects of chrysin, C7S, and C7G on the albumin-binding of Sudow’s Site I (warfarin) and Site II (naproxen) markers were tested by ultrafiltration. In these experiments, Pall Microsep^TM Advance Centrifugal Devices (Pall Corporation, Ann Arbor, MI, USA) (from VWR) with a 30 kDa molecular weight cut-off value were employed, as described elsewhere. To examine the displacement of warfarin by flavonoids, samples contained warfarin and HSA (1.0 and 5.0 µmol/L, respectively) in the absence and presence of flavonoids (10 or 20 µmol/L). Furthermore, to test the displacing ability of chrysin and its metabolites vs. naproxen, flavonoids (10 or 20 µmol/L) were added to naproxen and HSA (1.0 and 1.7 µmol/L, respectively). Each sample was prepared in PBS (pH 7.4). Before ultrafiltration, filter units were washed once with 3 mL of water, and twice with 3 mL of PBS (to completely eliminate glycerol from the filters). Thereafter, samples (2.5 mL each) were driven through the filter units by centrifugation at 7500 g and 25 °C for 10 min (fixed angle rotor). Concentrations of warfarin and naproxen in the filtrate were quantified with HPLC (see details in Section 4.4).
(§2) The HPLC system used to quantify warfarin and naproxen was equipped with a pump (model 510, Waters, Milford, MA, USA) and an injector (Rheodyne 7125, Rheodyne, Berkeley, CA, USA) with a 20 µL sample loop. Warfarin and naproxen were analyzed with a fluorescence detector (Jasco FP-920, Reanal) and an UV detector (Waters 486), respectively. Data were evaluated using Millennium Chromatography Manager (Waters).
Warfarin was analyzed based on the previously reported method without modifications. Methanol (VWR), acetonitrile (VWR), and sodium phosphate buffer (20 mM, pH 7.0) (25:5:70 v/v%) were applied in the mobile phase with 1 mL/min flow rate during the isocratic elution. Samples were driven through a guard column (Phenomenex SecurityGuard^TM Catridge C18 4.0 × 3.0 mm) linked to an analytical column (Nova-Pak C18 150 × 3.9 mm, 4 μm). Separation and analysis were performed at room temperature, during which warfarin was detected by fluorescence employing 310 and 390 nm as excitation and emission wavelengths, respectively.

[2] = tested on: T2, warfarin–HSA complex; test: Fluorescence anisotropy of warfarin–HSA complex; assay type: binding, human; details: 1.0 µmol/L warfarin, 2.0 µmol/L HSA, increasing flavonoid concentrations, λex 317 nm, λem 379 nm
T2 construct: purchased Sigma-Aldrich
Experimental: (§3) Fluorescence spectroscopic measurements were carried out employing a Hitachi F-4500 fluorimeter (Tokyo, Japan). Absorption spectra of flavonoids were recorded using a HALO DB-20 UV-Vis spectrophotometer (Dynamica, London, UK). Spectroscopic measurements were performed in phosphate-buffered saline (pH 7.4; PBS: 8.0 g/L NaCl, 0.2 g/L KCl, 1.81 g/L Na2HPO4·2H2O, and 0.24 g/L KH2PO4) at room temperature, in the presence of air.
To confirm further the displacement of warfarin from HSA by chrysin, C7S, and C7G, fluorescence anisotropy measurements were also performed. Increasing concentrations of flavonoids (0.0, 1.0, 2.0, 5.0, and 10 µmol/L) were added to warfarin and HSA (1.0 and 2.0 µmol/L, respectively). Fluorescence anisotropy values were determined (λex = 317 nm; λem = 379 nm) as described.

[3] = tested on: T2, warfarin–HSA complex; test: Steady-state fluorescence of warfarin–HSA complex (displacement of warfarin); assay type: binding, human; details: 1.0 µmol/L warfarin, 3.5 µmol/L HSA, flavonoid 0.5–10 µmol/L, λex 317 nm
Experimental: as §3
Displacement of warfarin (site marker of Sudlow’s Site I) from HSA was examined based on the previously reported model. Increasing concentrations of chrysin, C7S, and C7G (0.0, 0.5, 1.0, 2.0, 3.0, 5.0, and 10 µmol/L) were added to standard concentrations of warfarin and HSA (1.0 and 3.5 µmol/L, respectively). Thereafter, fluorescence emission spectra were recorded using 317 nm as excitation wavelength.

[4] = target: T3, bovine serum albumin (BSA) (Bos taurus, UniProt P02769); test: Fluorescence quenching of BSA by flavonoids (Stern–Volmer and Hyperquad2006 evaluation); assay type: binding; details: BSA 2 µmol/L, decimal log ± SEM; for Kd: PBS pH 7.4, Hyperquad2006, read-out: logK (binding constant) (converted); for logKSV (Stern–Volmer quenching constant): PBS pH 7.4, λex 295 nm, λem 340 nm
T3 construct: purchased Sigma-Aldrich
Experimental: as §3
(§4) The complex formation of flavonoids with albumin was tested with both HSA and BSA. Binding constants of flavonoid–albumin complexes were determined by fluorescence quenching, during which emission spectra of albumins (2 µmol/L) were recorded in the presence of increasing flavonoid concentrations (0.0, 0.5, 1.0, 2.0, 3.0, 4.0 and 5.0 µmol/L; λexc = 295 nm). Quenching studies were evaluated based on the graphical application of the Stern–Volmer equation [31, 34]. To eliminate the potential inner filter effects of flavonoids, fluorescence intensities were corrected as described.
(§5) Binding constants (K) of flavonoid–albumin complexes were also evaluated by non-linear fitting employing the Hyperquad2006 program package (Protonic Software, Leeds, UK) as described elsewhere. Binding constants and stoichiometry were quantified based on the model with the lowest standard deviation.

[5] = tested on: T4, naproxen–HSA complex (Sudlow's Site II); test: Ultrafiltration: displacement of Site II marker naproxen from HSA; assay type: binding, human; details: 1 µmol/L naproxen, 1.7 µmol/L HSA, PBS pH 7.4
T4 construct: purchased Sigma-Aldrich
Experimental: as §1, §2
Naproxen was quantified based on the previously reported method without modifications. Acetonitrile and sodium acetate buffer (6.9 mM, pH 4.0) (50:50 v/v%) were applied in the mobile phase with a 1 mL/min flow rate during the isocratic elution. […] Separation and analysis were performed at room temperature, during which naproxen was detected by absorbance at 230 nm.

[6] = set-up: method as in PMID 11259985; details: healthy human volunteers, 400 mg chrysin orally; cited from earlier work
[7] = set-up: method as in PMID 25715997; details: mice, oral administration of 20 mg/kg chrysin; read-out: Cmax (peak plasma concentration); cited from earlier work
[8] = target: T5, human serum albumin (HSA) (Homo sapiens, UniProt P02768); test: Fluorescence quenching of HSA by flavonoids (Stern–Volmer and Hyperquad2006 evaluation); assay type: binding; details: for Kd / logKSV (Stern–Volmer quenching constant): HSA 2 µmol/L, decimal log ± SEM; for Kd: PBS pH 7.4, Hyperquad2006, read-out: logK (binding constant) (converted); for logKSV (Stern–Volmer quenching constant): PBS pH 7.4, λex 295 nm, λem 340 nm; for Stability of flavonoid–HSA complex vs. the chrysin–HSA complex: relative to chrysin–HSA
T5 construct: purchased Sigma-Aldrich
Experimental: as §3, §4, §5

[9] = target: HSA; details: cited from earlier work
[10] = 10 or 20 μM flavonoid (both concentrations)
[11] = 10 and 20 μM flavonoid (both concentrations)

T5 sequence (P02768 25-609): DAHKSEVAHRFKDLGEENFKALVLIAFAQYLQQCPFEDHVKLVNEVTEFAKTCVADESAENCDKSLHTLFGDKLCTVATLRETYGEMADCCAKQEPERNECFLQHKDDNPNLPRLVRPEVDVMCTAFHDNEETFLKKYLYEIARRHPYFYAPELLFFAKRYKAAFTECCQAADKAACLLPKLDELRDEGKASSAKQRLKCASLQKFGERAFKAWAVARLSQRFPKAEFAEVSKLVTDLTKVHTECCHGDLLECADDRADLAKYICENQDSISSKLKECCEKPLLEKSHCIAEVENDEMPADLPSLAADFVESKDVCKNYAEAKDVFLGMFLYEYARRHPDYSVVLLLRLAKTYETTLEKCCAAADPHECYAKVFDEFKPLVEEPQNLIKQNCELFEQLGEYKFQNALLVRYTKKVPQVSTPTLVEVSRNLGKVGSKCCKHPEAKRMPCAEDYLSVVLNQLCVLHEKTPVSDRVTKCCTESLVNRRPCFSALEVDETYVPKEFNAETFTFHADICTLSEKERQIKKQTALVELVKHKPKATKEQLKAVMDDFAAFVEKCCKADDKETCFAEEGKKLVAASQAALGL
T3 sequence (P02769 25-607): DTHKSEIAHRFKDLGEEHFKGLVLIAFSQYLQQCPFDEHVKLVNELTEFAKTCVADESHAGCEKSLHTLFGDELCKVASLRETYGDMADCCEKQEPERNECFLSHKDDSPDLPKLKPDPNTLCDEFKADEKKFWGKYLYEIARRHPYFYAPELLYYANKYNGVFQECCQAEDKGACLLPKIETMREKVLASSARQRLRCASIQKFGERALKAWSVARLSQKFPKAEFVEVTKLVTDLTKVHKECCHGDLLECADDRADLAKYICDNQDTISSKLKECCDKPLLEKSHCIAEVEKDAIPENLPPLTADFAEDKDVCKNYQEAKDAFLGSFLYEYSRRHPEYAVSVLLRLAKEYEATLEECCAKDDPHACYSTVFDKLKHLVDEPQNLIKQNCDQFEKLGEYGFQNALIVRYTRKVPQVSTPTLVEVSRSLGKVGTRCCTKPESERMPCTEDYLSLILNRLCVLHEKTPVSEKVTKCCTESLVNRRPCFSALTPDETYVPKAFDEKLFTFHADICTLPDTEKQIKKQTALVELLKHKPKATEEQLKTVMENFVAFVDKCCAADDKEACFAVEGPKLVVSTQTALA

O=c1cc(-c2ccccc2)oc2cc(OS(=O)(=O)O)cc(O)c12 [Chrysin-7-sulfate, chrysin-7-sulfate]
Concentration of warfarin in the filtrate ([1]; 10 μM flavonoid): remarkable increase | Concentration of warfarin in the filtrate [1, 10]: practically the complete displacement of bound warfarin molecules from HSA | Fluorescence anisotropy of warfarin [2]: strong decrease | Fluorescence emission signal of warfarin at 379 nm [3]: strongest decrease | Kd [4]: 0.631 µM | logKSV (Stern–Volmer quenching constant) [4]: 5.86 ± 0.04 L/mol | Concentration of naproxen in the filtrate [5, 11]: statistically significant elevation | AUC0–∞ [6]: 420 to 4220 ng·h/mL | AUC0–∞ of C7S compared with chrysin [6]: approximately 30 fold | Cmax [7]: 160 nM | Kd [8]: 1.32 µM | logKSV (Stern–Volmer quenching constant) [8]: 5.61 ± 0.03 L/mol | Stability of flavonoid–HSA complex vs. the chrysin–HSA complex [8]: threefold higher

O=c1cc(-c2ccccc2)oc2cc(O)cc(O)c12 [Chrysin, 5,7-dihydroxyflavone]
Concentration of warfarin in the filtrate ([1]; 20 μM flavonoid): statistically significant (albeit slight) increase | Fluorescence anisotropy of warfarin [2]: strong decrease | Fluorescence emission signal of warfarin at 379 nm [3]: significantly decreased | Kd [4]: 6.31 µM | logKSV (Stern–Volmer quenching constant) [4]: 5.03 ± 0.06 L/mol | Concentration of naproxen in the filtrate [5, 11]: statistically significant elevation | K (binding constant to HSA) [9]: 10^5–10^6 L/mol | AUC0–∞ [6]: 3 to 16 ng·h/mL | Cmax [7]: 10 nM | Kd [8]: 3.89 µM | logKSV (Stern–Volmer quenching constant) [8]: 5.25 ± 0.02 L/mol

C[C@@H]1Cc2c(Cl)cc(C(=O)N[C@@H](Cc3ccccc3)C(=O)O)c(O)c2C(=O)O1 [Ochratoxin A, ochratoxin A, reference compound]
logK (complex with HSA) [9]: 7.4–7.6

O=C(O)C1OC(Oc2cc(O)c3c(=O)cc(-c4ccccc4)oc3c2)C(O)C(O)C1O (stereo not shown) [Chrysin-7-glucuronide, chrysin-7-glucuronide]
Concentration of warfarin in the filtrate [1, 10]: did not significantly change | Fluorescence emission signal of warfarin at 379 nm [3]: only a slight (but statistically significant) effect | Kd [4]: 23.4 µM | logKSV (Stern–Volmer quenching constant) [4]: 4.34 ± 0.03 L/mol | Concentration of naproxen in the filtrate ([5]; higher flavonoid concentration (20 μM)): significant effect | Cmax [7]: 130 nM | Kd [8]: 12.9 µM | logKSV (Stern–Volmer quenching constant) [8]: 4.71 ± 0.03 L/mol | Stability of flavonoid–HSA complex vs. the chrysin–HSA complex [8]: threefold lower
